Earlier results on one compound are cited in patent EP0475894A1, “Gemfibrozil formulations” (WARNER-LAMBERT COMPANY, priority 1990, dated 1992).

For this data set the following is noted: particularly in a highly acidic medium.

For `Cc1ccc(C)c(OCCCC(C)(C)C(=O)O)c1` [Gemfibrozil, 5-(2,5-dimethylphenoxy)-2,2-dimethylpentanoic acid], the solubility in water result is “very poor solubility in water”.
